Laboratory results taken from ChEMBL document CHEMBL1121684, “Selective and potent beta 2-adrenoceptor agents within the tetrahydroisoquinoline class: effect of methyl substitution at the benzylic carbon of the 1-(3,4,5-trimethoxybenzyl) group of trimetoquinol” (J Med Chem, 1981).

Experiments:
[1] = tested on: Beta-1 adrenergic receptor (Cavia porcellus); details: Cardiac atrium
[2] = biological target: Beta-2 adrenergic receptor (Cavia porcellus) (UniProt Q8K4Z4)
Chain of Beta-2 adrenergic receptor (Cavia porcellus) (Q8K4Z4 whole entry, looked up): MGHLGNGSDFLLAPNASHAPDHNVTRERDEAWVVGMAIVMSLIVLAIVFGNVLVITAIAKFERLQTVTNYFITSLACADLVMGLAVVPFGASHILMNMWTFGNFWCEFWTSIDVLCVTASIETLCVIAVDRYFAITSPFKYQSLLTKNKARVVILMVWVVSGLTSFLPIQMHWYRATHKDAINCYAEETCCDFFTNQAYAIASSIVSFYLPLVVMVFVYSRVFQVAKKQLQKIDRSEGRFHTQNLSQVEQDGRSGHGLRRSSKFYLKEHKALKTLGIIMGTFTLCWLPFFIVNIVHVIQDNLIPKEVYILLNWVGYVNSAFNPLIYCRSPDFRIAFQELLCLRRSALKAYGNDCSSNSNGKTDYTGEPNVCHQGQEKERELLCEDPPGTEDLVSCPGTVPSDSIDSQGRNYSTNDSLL
Description: Beta-2 adrenergic receptor activity in guinea pig tracheal smooth muscle

Row | pD2 [1] | pD2 [2] | Structure (SMILES)
1 | 7.35 | 8.39 | COc1cc([C@@H](C)[C@@H]2NCCc3cc(O)c(O)cc32)cc(OC)c1OC
2 |  | 4.47 | COc1cc(C(C)(C)[C@@H]2NCCc3cc(O)c(O)cc32)cc(OC)c1OC
3 |  | 8.15 | COc1cc(C[C@@H]2NCCc3cc(O)c(O)cc32)cc(OC)c1OC
4 | 6.67 | 7.15 | COc1cc([C@H](C)[C@@H]2NCCc3cc(O)c(O)cc32)cc(OC)c1OC
